In the supplement of paper PMC12494721:
Structures can show the parent of a compound that is named as a salt.

How the values were obtained:
Conditions in all cases: incubation time: 27 h, anaerobic, 37 °C
[1] = test system: Clostridium sporogenes DSM 1664; test: growth (OD595) fold change vs plate DMSO controls (fold change (ratio)); higher = more growth
[2] = test system: Klebsiella aerogenes DSM 30053; test: as above
[3] = test system: Ruminococcus gnavus DSM 108212; test: as above
[4] = test system: Klebsiella aerogenes DSM 30053; test: fold change of Histamine concentration vs plate DMSO controls (fold change (ratio)); higher = more amine produced
Method: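 Dose-response follow-up: bacteria (E. coli IAI1, K. aerogenes DSM 30053, C. sporogenes DSM 1664, R. gnavus DSM 108212) were grown anaerobically in mGAM at 37 °C for 27 h with compound at 0.6125-20 µM. Amines were measured in the whole culture by targeted LC-MS/MS. Metabolite fold change and OD595 fold change are relative to plate DMSO controls; n=2 biological replicates. OD fold changes are not clipped, so slightly negative values mean no growth.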

[5] = test system: Klebsiella aerogenes DSM 30053; test: fold change of Putrescine concentration vs plate DMSO controls (fold change (ratio)); higher = more amine produced
[6] = test system: Clostridium sporogenes DSM 1664; test: fold change of Tryptamine concentration vs plate DMSO controls (fold change (ratio)); higher = more amine produced
[7] = test system: Ruminococcus gnavus DSM 108212; test: as above
[8] = test system: Klebsiella aerogenes DSM 30053; test: fold change of Cadaverine concentration vs plate DMSO controls (fold change (ratio)); higher = more amine produced
[9] = test system: Ruminococcus gnavus DSM 108212; test: fold change of 2-Phenylethylamine concentration vs plate DMSO controls (fold change (ratio)); higher = more amine produced

CCn1cc(C(=O)O)c(=O)c2cc(F)c(N3CCNCC3)cc21 [Norfloxacin]
growth ([1]; 0.6125 µM): 1.02
growth ([1]; 1.25 µM): 0.736
growth ([1]; 2.5 µM): 0.00966
growth ([1]; 5 µM): 0.0175
growth ([1]; 10 µM): 0.0423
growth ([1]; 20 µM): 0.00666
growth ([2]; 0.6125 µM): 1.14
growth ([2]; 1.25 µM): 0.479
growth ([2]; 2.5 µM): 0.363
growth ([2]; 5 µM): 0.384
growth ([2]; 10 µM): 0.385
growth ([2]; 20 µM): 0.256
growth ([3]; 0.6125 µM): 1.36
growth ([3]; 1.25 µM): 0.823
growth ([3]; 2.5 µM): 0.713
growth ([3]; 5 µM): 0.628
growth ([3]; 10 µM): 0.607
growth ([3]; 20 µM): 0.425
fold change of Histamine concentration ([4]; 0.6125 µM): 1.18
fold change of Histamine concentration ([4]; 1.25 µM): 0.775
fold change of Histamine concentration ([4]; 2.5 µM): 0.571
fold change of Histamine concentration ([4]; 5 µM): 0.19
fold change of Histamine concentration ([4]; 10 µM): 0.262
fold change of Histamine concentration ([4]; 20 µM): 0.237
fold change of Putrescine concentration ([5]; 0.6125 µM): 1.02
fold change of Putrescine concentration ([5]; 1.25 µM): 1.21
fold change of Putrescine concentration ([5]; 2.5 µM): 1.29
fold change of Putrescine concentration ([5]; 5 µM): 1.31
fold change of Putrescine concentration ([5]; 10 µM): 1.37
fold change of Putrescine concentration ([5]; 20 µM): 1.37
fold change of Tryptamine concentration ([6]; 0.6125 µM): 0.911
fold change of Tryptamine concentration ([6]; 1.25 µM): 0.589
fold change of Tryptamine concentration ([6]; 2.5 µM): 0.0459
fold change of Tryptamine concentration ([6]; 5 µM): 0.035
fold change of Tryptamine concentration ([6]; 10 µM): 0.0429
fold change of Tryptamine concentration ([6]; 20 µM): 0.0345
fold change of Tryptamine concentration ([7]; 0.6125 µM): 1.44
fold change of Tryptamine concentration ([7]; 1.25 µM): 2.07
fold change of Tryptamine concentration ([7]; 2.5 µM): 1.45
fold change of Tryptamine concentration ([7]; 5 µM): 1.32
fold change of Tryptamine concentration ([7]; 10 µM): 1.41
fold change of Tryptamine concentration ([7]; 20 µM): 1.51
fold change of Cadaverine concentration ([8]; 0.6125 µM): 0.969
fold change of Cadaverine concentration ([8]; 1.25 µM): 1.02
fold change of Cadaverine concentration ([8]; 2.5 µM): 1
fold change of Cadaverine concentration ([8]; 5 µM): 1
fold change of Cadaverine concentration ([8]; 10 µM): 1.01
fold change of Cadaverine concentration ([8]; 20 µM): 1
fold change of 2-Phenylethylamine concentration ([9]; 0.6125 µM): 1.3
fold change of 2-Phenylethylamine concentration ([9]; 1.25 µM): 1.98
fold change of 2-Phenylethylamine concentration ([9]; 2.5 µM): 1.23
fold change of 2-Phenylethylamine concentration ([9]; 5 µM): 1.2
fold change of 2-Phenylethylamine concentration ([9]; 10 µM): 1.25
fold change of 2-Phenylethylamine concentration ([9]; 20 µM): 1.38

N[C@@H]1CCCCN(c2c(F)cc3c(=O)c(C(=O)O)cn(C4CC4)c3c2Cl)C1 [Besifloxacin hydrochloride]
growth ([2]; 0.6125 µM): 1.32
growth ([2]; 1.25 µM): 0.476
growth ([2]; 2.5 µM): 0.277
growth ([2]; 5 µM): 0.336
growth ([2]; 10 µM): 0.358
growth ([2]; 20 µM): 0.302
growth ([3]; 0.6125 µM): 1.01
growth ([3]; 1.25 µM): 0.127
growth ([3]; 2.5 µM): 0.193
growth ([3]; 5 µM): 0.207
growth ([3]; 10 µM): 0.22
growth ([3]; 20 µM): 0.182
fold change of Histamine concentration ([4]; 0.6125 µM): 1.18
fold change of Histamine concentration ([4]; 1.25 µM): 0.938
fold change of Histamine concentration ([4]; 2.5 µM): 0.188
fold change of Histamine concentration ([4]; 5 µM): 0.166
fold change of Histamine concentration ([4]; 10 µM): 0.185
fold change of Histamine concentration ([4]; 20 µM): 0.241
fold change of Putrescine concentration ([5]; 0.6125 µM): 1.02
fold change of Putrescine concentration ([5]; 1.25 µM): 1.22
fold change of Putrescine concentration ([5]; 2.5 µM): 1.26
fold change of Putrescine concentration ([5]; 5 µM): 1.36
fold change of Putrescine concentration ([5]; 10 µM): 1.43
fold change of Putrescine concentration ([5]; 20 µM): 1.4
fold change of Tryptamine concentration ([7]; 0.6125 µM): 1.36
fold change of Tryptamine concentration ([7]; 1.25 µM): 0.415
fold change of Tryptamine concentration ([7]; 2.5 µM): 0.746
fold change of Tryptamine concentration ([7]; 5 µM): 0.657
fold change of Tryptamine concentration ([7]; 10 µM): 0.451
fold change of Tryptamine concentration ([7]; 20 µM): 0.385
fold change of Cadaverine concentration ([8]; 0.6125 µM): 0.955
fold change of Cadaverine concentration ([8]; 1.25 µM): 1.03
fold change of Cadaverine concentration ([8]; 2.5 µM): 1.02
fold change of Cadaverine concentration ([8]; 5 µM): 1.02
fold change of Cadaverine concentration ([8]; 10 µM): 1
fold change of Cadaverine concentration ([8]; 20 µM): 0.981
fold change of 2-Phenylethylamine concentration ([9]; 0.6125 µM): 1.11
fold change of 2-Phenylethylamine concentration ([9]; 1.25 µM): 0.219
fold change of 2-Phenylethylamine concentration ([9]; 2.5 µM): 0.487
fold change of 2-Phenylethylamine concentration ([9]; 5 µM): 0.44
fold change of 2-Phenylethylamine concentration ([9]; 10 µM): 0.321
fold change of 2-Phenylethylamine concentration ([9]; 20 µM): 0.296
